# In patent publication US20250345458A1, “COMPLEXING AGENT SALT FORMULATIONS OF PHARMACEUTICAL COMPOUNDS AT LOW STOICHIOMETRIC RATIOS” (Bexson Biomedical, Inc., priority 2022, published 2025):
# Where “and” joins values, the source holds several entries; their conditions need not be identical. Equal entries are not always repeated. Entries after “also recorded” stand apart in the source; their conditions may differ. Structures can show the parent of a compound that is named as a salt. Marks after values point to notes of the source that are not given here.
# How the values were obtained:
# [1] = literature value; cited from earlier work
# [2] = API-CapAcid salts prepared in ethanol, then 70 mg of solid added to 1 mL water (visual); format: physicochemical
# Method: The resulting solid API-CapAcid salts were then obtained as solids by evaporation of the ethanol, followed by lyophilization.
# In a scintillation vial, a solution of API FB (100 mg) and CapAcid (1 molar equivalent, moisture corrected) was prepared by dissolving Cap Acid in 200 proof ethanol (5 mL) and then adding the freebase API. […] Whether or not the freebase dissolved after the second addition of ethanol, the initial pH, prior to titration, was recorded. The vial was then wrapped in foil and left uncovered in the hood to allow the ethanol to evaporate. After the ethanol fully evaporated, a small amount of HPLC grade water (3-5 mL) was added to each to see if the product would dissolve or become a suspension in the water. The solution was then lyophilized to remove the water. The product was ground with a stir rod and 70±0.1 mg was added to 1 mL of water to see if it would dissolve.
# [3] = Visual dissolution / precipitation of API free base-CapAcid formulations at stated API:CapAcid ratios; format: physicochemical
# [4] = pH of API formulations (pH meter); format: physicochemical; conditions: for final pH: after 2M NaOH
# [5] = in water, cited from earlier work; for Reported Freebase Solubility: vendor or literature value
# [6] = Dissolution of API freebase in aqueous CapAcid / Captisol solutions at defined API:CapAcid ratios, visual inspection and NaOH titration; conditions: for concentration (FB equivalents) at which the freebase dissolved / Successful in a 70 mg/mL API-CapAcid Formulation (Y/N): water; for Successful in a 70 mg/mL API-CapAcid Formulation (Y/N): 70 mg/mL FB
# [7] = Reported solubility in water of APIs (freebase and salt); format: physicochemical
# Method: Table 5 lists the solubility and pKa values of the various APIs described above.
# A challenge was that reliable solubility data for certain APIs was difficult to locate (especially for the freebase forms). As such in a number of instances only predicted values could be located and in the case of rimantidine HCl this value was inconsistent with our empirical results. Likewise, the drugbank predicted value for tigecycline was 0.01455 mg/mL, whereas a literature value was 0.45 mg/mL. The solubility of a range of poor to moderately to highly soluble APIs as freebases as well as common commercial API salt forms will be determined.
# [8] = Osmolality of API formulations (micro osmometer, triplicate); format: physicochemical
# Method: Osmolality readings were obtained on an Advanced Instruments Advanced™ Micro Osmometer Model 3300 (Advanced Instruments, Inc. Norwood, MA, USA). Saline solutions (0.9% and 3%) were run as positive controls. Each sample was calculated as the mean from back-to-back triplicate measurements. When replicate batches were measured, data was reported as mean±SEM.
# The procedure was performed on a 2 mL scale. […] Benzethonium chloride (20 μL of a 1% solution, 0.01% final concentration) was added via micropipette. The pH was adjusted to ˜7.00 with 2M sodium hydroxide, or either 1M or 2M HCl in some cases, and then the mixture was transferred to a 2 mL volumetric flask to be diluted with HPLC grade water. […]
# Method 1: In a 5 mL borosilicate glass test tube which contained a Teflon-coated magnetic stir bar, Captisol®-Na+ ([…], H+ equivalents, moisture corrected) was dissolved in HPLC grade water (1.6-1.7 mL), API salt (HCl in most cases) (70 mg/mL FB equivalents) was added and the mixture was stirred until a homogenous transparent solution formed. Benzethonium chloride (20 μL of a 1% solution, giving a 0.01% final concentration) was added via micropipette. The pH was adjusted to ˜7.00 with 1M or 2M sodium hydroxide, or either 1M or 2M HCl in some cases, and then the mixture was transferred to a 2 mL volumetric flask to be diluted with HPLC grade water. […]
# Benzethonium chloride (20 μL of a 1% solution, giving a 0.01% final concentration) was added via micropipette. The pH was adjusted to ˜7.00 with 1M or 2M sodium hydroxide, or either 1M or 2M HCl in some cases, and then the mixture transferred to a 2 mL volumetric flask to be diluted with HPLC grade water. […]
# The solution was transferred to a 2 mL volumetric flask and diluted to the target volume with HPLC grade water. […]
# [9] = as above; format: physicochemical; remark: listed apart in the source
# [10] = Concentration test of rimantadine HCl in water; format: physicochemical
# Method: A solution of 50 mg/mL rimantadine HCl, FB equivalents, (120.3 mg, 0.56 mmol), was prepared by adding 1.7 mL of HPLC grade water and an addition of a solution of benzethonium chloride (20 μL, […], 0.01% final concentration). […] It was diluted until it did dissolve, which took a total of 4.6 mL of HPLC (including the initial 1.7 mL). The solution was left to stir overnight. The solution was diluted to 5 mL, making the final concentration 20 mg/mL. The pH was 6.83 and the solution was filtered through a 0.20 micron syringe filter. The osmolality was 205 mOsm/kg.
# A separate test was performed on another 50 mg/mL solution of rimantadine HCl, FB equivalents (60.2 mg, 0.28 mmol), dissolved in 800 μL of HPLC grade water and an addition of a solution of benzethonium chloride (10 μL, 1 mg/mL, 0.01% final concentration).
# [11] = cited from earlier work
# [12] = cited from earlier work; remark: listed apart in the source
# [13] = Stability of tigecycline FB CapAcid solution on standing; format: physicochemical; conditions: 70 mg/mL FB with 1.1 molar equivalents of CapAcid, FIG. 1A
# Method: The formulation of Tigecycline FB CapAcid was prepared as follows. The preparation procedure for Tigecycline FB CapAcid Formulation was modified from the general procedure. A solution of 70 mg/mL Tigecycline FB (69.9 mg, 0.12 mmol) and 1.1 equivalents of CapAcid, H^+ equivalents, (43.7 mg moisture corrected, 40.8 mg active, 0.02 mmol, 0.13 mmol H^+) was prepared by dissolving CapAcid in 700 μL of HPLC grade water, then adding the freebase and stirring until a homogenous solution formed. Benzethonium chloride (10 μL, 1 mg/mL, 0.01% final concentration) was added to the solution. NaOH (2M) was added until the pH was 7.00±0.01. The solution was diluted to 1 mL and the final pH was determined to be 6.99. […] The solution was filtered through a 0.45 micron syringe filter.
# [14] = API FB CapAcid formulation, 70 mg/mL API FB, 1.1 equivalents CapAcid (H^+ equivalents), after titration
# [15] = CapAcid-API Freebase Formulation (70 mg/mL API FB, 1.1 molar equivalent CapAcid), after pH titration with NaOH or HCl
# [16] = 70 mg/mL API FB, 1.1 equivalents CapAcid, before NaOH/HCl
# [17] = concentration test solution diluted to 20 mg/mL, with benzethonium chloride
structure (smiles),measurement,setting,value
CCCN(CCc1cccs1)[C@H]1CCc2c(O)cccc2C1 [rotigotine],pKa (amine),[1],10.97
same,pKa (phenol),[1],10.03
same,pH of the ethanol solution prior to titration,[2]; API FB 100 mg + CapAcid 1 molar equivalent (H^+) in 10 mL 200 proof ethanol,5.63
same,dissolution of 70 mg of the ethanol-prepared API-CapAcid solid in 1 mL water,"[2]; visual, vortexed",did not dissolve in water
same,solubility compared to higher API:captisol ratio,[3]; 1:1 ratio to captisol compared to 2:1 ratio,superior solubility
same,appearance at higher API:captisol ratio,[3]; 2:1 ratio to captisol,precipitation
same,pH of the solution before titration,[4]; 1:1 ratio of API to CapAcid,0.93
same,final pH,[4]; 1:1 ratio of API to CapAcid,5.49
same,pH of the solution before titration,[4]; 2:1 ratio of API to CapAcid,1.66
same,final pH,[4]; 2:1 ratio of API to CapAcid,5.51
same,Reported Salt Solubility,[5],3.51 mg/mL^17
same,concentration (FB equivalents) at which the freebase dissolved,[6]; 1:1 ratio of API to CapAcid (relative to the cyclodextrin),10000 µg/mL
same,concentration (FB equivalents) at which the freebase dissolved,[6]; 2:1 ratio of API to CapAcid (relative to the cyclodextrin),3000 µg/mL
same,dissolution by visual inspection,"[6]; 2:1 ratio of API to CapAcid, 100 mg FB in 30 mL water (3 mg/mL)",most of the FB dissolved
CC(N)C12CC3CC(CC(C3)C1)C2 (centres unmarked) [Rimantadine],solubility,[7],~20 mg/mL
same,osmolality and pH in words,[8]; 70 mg/mL API-Cap formulation,isosmotic and PH neutral
same,Osmolality,[8]; [14],301.7 mOsmol/kg
same,Osmolality,[8]; [15],301.7 mOsm/kg
same,Osmolality,"[8]; Captisol®-Na^+ formulation of API salt, ***20 mg/mL FB equivalents, 1.1 molar equivalent Captisol®-Na^+",297.3*** mOsm/kg
same,pH of the solution prior to titration,"[4]; 20 mg/mL API HCl (FB equivalent), 1.1 equivalents Captisol®-Na^+, before NaOH",4.65
same,pH of the solution prior to titration,[4]; [16],1.93
same,pH,"[4]; CapAcid-API Freebase Formulation (70 mg/mL API FB, 1.1 molar equivalent CapAcid), final pH after titration and dilution",6.98
same,Successful in a 70 mg/mL API-CapAcid Formulation (Y/N),[6]; listed as Rimantidine,prepared at 70 mg/mL without issue
same,Osmolality,"[9]; 20 mg/mL API HCl (FB equivalent), 1.1 equivalents Captisol®-Na^+",297.3 mOsmol/kg
same,Osmolality,"[9]; API Salt in water, ***20 mg/mL FB equivalents",195.3 mOsm/kg
CCOC(=O)c1ncn2c1CN(C)C(=O)c1cc(F)ccc1-2 [Flumazenil],pKa,[1],2.87^21
same,Reported Freebase Solubility,[5],1.2 mg/mL
same,Successful in a 70 mg/mL API-CapAcid Formulation (Y/N),[6],unsuccessful
CC(N)C12CC3CC(CC(C3)C1)C2 (centres unmarked) [Rimantadine HCl],"dissolution at 50 mg/mL, FB equivalents",[10]; HPLC grade water with 0.01% benzethonium chloride,did not dissolve
same,solubility,"[10]; pH 6.83, aqueous with cosolvent or surfactant or cyclodextrin, thermodynamic from solid, HPLC grade water, stirred overnight, read-out: concentration at which the salt was soluble in water (FB equivalents)",20 mg/mL
same,dissolution state of the formulation,[3]; HCl,fully dissolved; also recorded: incompletely dissolved
same,pH,[4]; [17],6.83
same,Osmolality,[9]; [17],205 mOsm/kg
"CO[C@H]1C[C@@H]2CC[C@@H](C)[C@@](O)(O2)C(=O)C(=O)N2CCCC[C@H]2C(=O)O[C@H]([C@H](C)C[C@@H]2CC[C@@H](O)[C@H](OC)C2)CC(=O)[C@H](C)/C=C(\C)[C@@H](O)[C@@H](OC)C(=O)[C@H](C)C[C@H](C)/C=C/C=C/C=C/1C [Rapamycin, rapamycin]",reported strongest acidic pKa,[11],9.96
same,strongest basic pKa,[11],−3
CC(=O)[C@H]1CC[C@H]2[C@@H]3CC[C@H]4C[C@H](O)CC[C@]4(C)[C@H]3CC[C@]12C [Brexanolone],oral bioavailability,[12],poor
"CN(C)c1cc(NC(=O)CNC(C)(C)C)c(O)c2c1C[C@H]1C[C@H]3[C@H](N(C)C)C(O)=C(C(N)=O)C(=O)[C@@]3(O)C(O)=C1C2=O [Tigecycline, tigecycline]",Osmolality,[8]; 70 mg/mL API FB and 1 equivalent of 6M HCl in water,138.3 mOsmol/kg
same,Osmolality,"[8]; 70 mg/mL API FB, 1 equivalent of 6M HCl, 1.1 equivalents Captisol®-Na^+",330.3 mOsmol/kg
same,Osmolality,"[8]; 70 mg/mL FB, 1.1 equivalents CapAcid, 1 mL scale, recorded the next day after the solution had turned yellow-brown",158.7 mOsmol/kg
same,Osmolality,[8]; *70 mg/mL API FB + molar equivalent of 6M HCl in water,138.3* mOsm/kg
same,Osmolality,[8]; [14],99.3 mOsmol/kg and 92.7 mOsmol/kg
same,Osmolality,[8]; [15],1: 99.3 mOsm/kg and 2: 92.7 mOsm/kg
same,Osmolality,"[8]; Captisol®-Na^+ formulation, *70 mg/mL API FB + 6M HCl, 1.1 molar equivalent Captisol®-Na^+",330.3* mOsm/kg
same,pH of the solution prior to titration,"[4]; 70 mg/mL API FB, 1 equivalent 6M HCl, 1.1 equivalents Captisol®-Na^+, before NaOH/HCl",5.61
same,pH of the solution prior to titration,[4]; [16],5.19 and 5.37
same,Reported Freebase Solubility,[5],0.45 mg/mL
same,stability of the formulation,[13],degradation after 24 hours
